According to patent US20230141101A1, “PDE4 INHIBITOR COMPOUND AND MEDICAL USE THEREOF” (Suzhou Longbotai Pharmaceuticals Co., Ltd., priority 2020, published 2023):

Columns and labels:
Format in all cases: biochemical
Details in all cases: 20 nM
PDE4A1A = biological target: T1, PDE4A1A (Homo sapiens, UniProt P27815); experiment: PDE4 inhibitory activity assay (FAM-cAMP enzymatic reaction), PDE4A1A
T1 construct: purchased BPS 60040
Procedure, shortened: (§1)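 Inhibition rates from a fluorescence read gave IC50 values. Each enzyme (PDE4A1A, PDE4B1, PDE4D2) sat with compound for 15 min at room temperature; FAM-cAMP then started a 30 min room-temperature reaction, ended with stop solution and left 60 min more.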

PDE4D2 = PDE4D2 (Homo sapiens, UniProt Q08499); experiment: PDE4 inhibitory activity assay (FAM-cAMP enzymatic reaction), PDE4D2
Procedure, shortened: as §1

PDE4B1 = biological target: T2, PDE4B1 (Homo sapiens, UniProt Q07343); experiment: PDE4 inhibitory activity assay (FAM-cAMP enzymatic reaction), PDE4B1
T2 construct: purchased BPS 60041
Procedure, shortened: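 Each isoform is incubated with test compound for 15 min at room temperature before FAM-cAMP substrate starts a 30-min reaction.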

T1 sequence (P27815 1-647 isoform P27815-4): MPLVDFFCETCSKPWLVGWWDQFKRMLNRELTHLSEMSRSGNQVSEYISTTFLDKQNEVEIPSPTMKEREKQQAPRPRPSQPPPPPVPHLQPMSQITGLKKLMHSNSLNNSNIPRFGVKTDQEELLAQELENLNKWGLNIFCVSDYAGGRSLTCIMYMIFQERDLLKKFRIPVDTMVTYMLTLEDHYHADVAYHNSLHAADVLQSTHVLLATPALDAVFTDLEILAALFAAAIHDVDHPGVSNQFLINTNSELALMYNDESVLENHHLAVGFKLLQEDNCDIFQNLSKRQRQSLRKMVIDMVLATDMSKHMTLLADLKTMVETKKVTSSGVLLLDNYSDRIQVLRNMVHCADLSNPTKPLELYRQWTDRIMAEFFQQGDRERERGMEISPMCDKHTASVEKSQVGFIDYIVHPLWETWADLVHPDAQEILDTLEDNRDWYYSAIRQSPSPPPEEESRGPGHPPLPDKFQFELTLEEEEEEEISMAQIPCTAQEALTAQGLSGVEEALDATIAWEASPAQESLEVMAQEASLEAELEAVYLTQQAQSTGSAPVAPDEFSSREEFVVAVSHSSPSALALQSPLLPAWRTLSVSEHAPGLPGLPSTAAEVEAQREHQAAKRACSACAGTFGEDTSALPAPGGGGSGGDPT
T2 sequence (Q07343 whole entry): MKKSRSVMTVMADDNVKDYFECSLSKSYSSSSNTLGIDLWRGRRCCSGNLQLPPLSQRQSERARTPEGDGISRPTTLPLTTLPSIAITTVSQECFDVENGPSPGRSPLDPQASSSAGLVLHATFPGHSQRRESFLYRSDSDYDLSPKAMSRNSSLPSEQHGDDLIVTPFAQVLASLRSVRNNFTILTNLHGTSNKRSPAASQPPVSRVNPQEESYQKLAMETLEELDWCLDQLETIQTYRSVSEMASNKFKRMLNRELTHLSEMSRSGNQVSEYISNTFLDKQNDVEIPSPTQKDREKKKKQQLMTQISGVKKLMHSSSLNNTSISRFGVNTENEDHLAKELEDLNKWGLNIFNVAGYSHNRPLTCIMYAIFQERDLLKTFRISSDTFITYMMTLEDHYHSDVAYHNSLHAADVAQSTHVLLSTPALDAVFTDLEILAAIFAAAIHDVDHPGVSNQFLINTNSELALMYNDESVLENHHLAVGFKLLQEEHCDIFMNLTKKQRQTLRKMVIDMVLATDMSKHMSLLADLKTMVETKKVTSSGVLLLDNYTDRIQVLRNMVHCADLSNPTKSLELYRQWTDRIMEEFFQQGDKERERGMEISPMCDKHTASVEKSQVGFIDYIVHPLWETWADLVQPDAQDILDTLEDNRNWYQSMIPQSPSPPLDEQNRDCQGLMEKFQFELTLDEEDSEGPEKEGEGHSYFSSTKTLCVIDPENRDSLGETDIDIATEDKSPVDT
PDE4D2, sequence (Q08499 303-809): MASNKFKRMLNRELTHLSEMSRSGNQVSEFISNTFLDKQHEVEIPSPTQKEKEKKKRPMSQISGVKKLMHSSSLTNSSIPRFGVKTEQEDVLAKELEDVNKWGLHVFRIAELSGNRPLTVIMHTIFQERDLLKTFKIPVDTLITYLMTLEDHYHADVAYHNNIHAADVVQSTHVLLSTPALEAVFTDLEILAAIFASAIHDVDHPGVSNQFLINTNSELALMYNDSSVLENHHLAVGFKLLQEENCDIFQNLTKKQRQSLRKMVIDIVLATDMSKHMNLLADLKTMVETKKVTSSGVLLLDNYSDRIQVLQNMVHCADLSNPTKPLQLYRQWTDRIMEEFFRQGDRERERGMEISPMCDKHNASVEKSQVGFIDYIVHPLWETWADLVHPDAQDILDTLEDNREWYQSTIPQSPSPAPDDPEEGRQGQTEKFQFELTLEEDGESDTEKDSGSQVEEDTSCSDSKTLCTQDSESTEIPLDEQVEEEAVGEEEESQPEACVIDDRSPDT

Compound	PDE4 A1 inhibitory effect at 20 nM (PDE4A1A)	PDE4 D2 inhibitory effect at 20 nM (PDE4D2)	PDE4 B1 inhibitory effect at 20 nM (PDE4B1)
CCOc1nc([C@@H](CS(C)(=O)=O)n2c(=O)[nH]c3cc(-c4cc(C)ccc4C)cnc32)ccc1OC [Ex. 101, (S)-6-(2,5-dimethylphenyl)-3-(1-(6-ethoxy-5-methoxypyridin-2-yl)-2-(methylsulfonyl)ethyl)-1H-imidazo[4,5-b]pyridin-2(3H)-one]	+	+	+
CCOc1nc([C@@H](CS(C)(=O)=O)n2c(=O)n(CC)c3c(C)c(-c4ccc(F)cc4)cnc32)ccc1OC [Ex. 48, (S)-3-(1-(6-ethoxy-5-methoxypyridin-2-yl)-2-(methylsulfonyl)ethyl)-1-ethyl-6-(4-fluorophenyl)-7-methyl-1H-imidazo[4,5-b]pyridin-2(3H)-one]	+	+	+
CCOc1nc(C(CS(C)(=O)=O)N2C(=O)c3csc([N+](=O)[O-])c3C2=O)ccc1OC (stereo not drawn) [Ex. 221, 5-(1-(6-ethoxy-5-methoxypyridin-2-yl)-2-(methylsulfonyl)ethyl)-1-nitro-4H-thieno[3,4-c]pyrrol-4,6(5H)-dione]	+	+	+
CCOc1nc([C@@H](CS(C)(=O)=O)n2c(=O)n(C)c3cc(-c4ccc(C)cc4F)ccc32)ccc1OC [Ex. 180, (S)-5-(2-fluoro-4-methylphenyl)-1-(1-(6-ethoxy-5-methoxypyridin-2-yl)-2-(methylsulfonyl)ethyl)-3-methyl-1H-benzo[d]imidazol-2(3H)-one]	+	+	+
CCOc1nc([C@@H](CS(C)(=O)=O)n2c(=O)n(C)c3cc(-c4ccccc4)cnc32)ccc1OC [Ex. 77, (S)-3-(1-(6-ethoxy-5-methoxypyridin-2-yl)-2-(methylsulfonyl)ethyl)-6-phenyl-1-methyl-1H-imidazo[4,5-b]pyridin-2(3H)-one]	+	+	+
CCOc1nc([C@H](CS(C)(=O)=O)n2c(=O)[nH]c3c(C)c(-c4ccccn4)cnc32)ccc1OC [Ex. 18, (R)-3-(1-(6-ethoxy-5-methoxypyridin-2-yl)-2-(methylsulfonyl)ethyl)-7-methyl-6-(pyridin-2-yl)-1H-imidazo[4,5-b]pyridin-2(3H)-one]	−	−	−
CCOc1nc([C@H](CS(C)(=O)=O)n2c(=O)[nH]c3c(C)c(-c4ccccc4)cnc32)ccc1OC [Ex. 5, (R)-3-(1-(6-ethoxy-5-methoxypyridin-2-yl)-2-(methylsulfonyl)ethyl)-7-methyl-6-phenyl-1H-imidazo[4,5-b]pyridin-2(3H)-one]	−	−	−
CCOc1nc([C@@H](CS(C)(=O)=O)n2c(=O)[nH]c3cc(-c4c(F)cccc4OC)cnc32)ccc1OC [Ex. 121, (S)-6-(6-fluoro-2-methoxyphenyl)-3-(1-(6-ethoxy-5-methoxypyridin-2-yl)-2-(methylsulfonyl)ethyl)-1H-imidazo[4,5-b]pyridin-2(3H)-one]	+	+	+
CCOc1nc([C@@H](CS(C)(=O)=O)n2c(=O)n(C)c3cc(-c4ccccn4)cnc32)ccc1OC [Ex. 123, (S)-3-(1-(6-ethoxy-5-methoxypyridin-2-yl)-2-(methylsulfonyl)ethyl)-1-methyl-6-(pyridin-2-yl)-1H-imidazo[4,5-b]pyridin-2(3H)-one]	+	+	+
CCOc1nc([C@@H](CS(C)(=O)=O)n2c(=O)n(C)c3cc(-c4cc(F)ccc4C)cnc32)ccc1OC [Ex. 110, (S)-6-(5-fluoro-2-methylphenyl)-3-(1-(6-ethoxy-5-methoxypyridin-2-yl)-2-(methylsulfonyl)ethyl)-1-methyl-1H-imidazo[4,5-b]pyridin-2(3H)-one]	+	+	+
CCOc1nc([C@@H](CS(C)(=O)=O)n2c(=O)[nH]c3c(C)c(-c4ccc(F)cc4)cnc32)ccc1OC [Ex. 6, (S)-3-(1-(6-ethoxy-5-methoxypyridin-2-yl)-2-(methylsulfonyl)ethyl)-6-(4-fluorophenyl)-7-methyl-1H-imidazo[4,5-b]pyridin-2(3H)-one]	+	=	+
CCOc1nc([C@@H](CS(C)(=O)=O)n2c(=O)[nH]c3c(C)c(-c4c(C)cccc4C)cnc32)ccc1OC [Ex. 34, (S)-6-(2,6-dimethylphenyl)-3-(1-(6-ethoxy-5-methoxypyridin-2-yl)-2-(methylsulfonyl)ethyl)-7-methyl-1H-imidazo[4,5-b]pyridin-2(3H)-one]	+	+	+
CCOc1nc([C@@H](CS(C)(=O)=O)n2c(=O)[nH]c3c(C)c(-c4ccc(F)cc4F)cnc32)ccc1OC [Ex. 28, (S)-6-(2,4-difluorophenyl)-3-(1-(6-ethoxy-5-methoxypyridin-2-yl)-2-(methylsulfonyl)ethyl)-7-methyl-1H-imidazo[4,5-b]pyridin-2(3H)-one]	+	+	+
CCOc1nc([C@@H](CS(C)(=O)=O)n2c(=O)n(CC(F)F)c3c(C)c(-c4ccccc4F)cnc32)ccc1OC(C)C [Ex. 69, (S)-1-(2,2-difluoroethyl)-3-(1-(6-ethoxy-5-isopropoxypyridin-2-yl)-2-(methylsulfonyl)ethyl)-6-(2-fluorophenyl)-7-methyl-1H-imidazo[4,5-b]pyridin-2(3H)-one]	+	+	+
CCOc1nc([C@@H](CS(C)(=O)=O)n2c(=O)[nH]c3cc(-c4ccccc4C4CC4)ccc32)ccc1OC [Ex. 148, (S)-5-(2-cyclopropylphenyl)-1-(1-(6-ethoxy-5-methoxypyridin-2-yl)-2-(methylsulfonyl)ethyl)-1H-benzo[d]imidazol-2(3H)-one]	+	+	+
CCOc1nc([C@H](CS(C)(=O)=O)n2c(=O)[nH]c3cc(-c4cc(F)ccc4F)cnc32)ccc1OC [Ex. 98, (R)-6-(2,5-difluorophenyl)-3-(1-(6-ethoxy-5-methoxypyridin-2-yl)-2-(methylsulfonyl)ethyl)-1H-imidazo[4,5-b]pyridin-2(3H)-one]	−	−	−
CCOc1nc([C@@H](CS(C)(=O)=O)n2c(=O)[nH]c3c(C)c(-c4ccccc4C(C)C)ccc32)ccc1OC [Ex. 149, (S)-1-(1-(6-ethoxy-5-methoxypyridin-2-yl)-2-(methylsulfonyl)ethyl)-5-(2-isopropylphenyl)-4-methyl-1H-benzo[d]imidazol-2(3H)-one]	+	+	+
CCOc1nc([C@@H](CS(C)(=O)=O)n2c(=O)n(CC)c3cc(-c4ccccn4)cnc32)ccc1OC [Ex. 124, (S)-3-(1-(6-ethoxy-5-methoxypyridin-2-yl)-2-(methylsulfonyl)ethyl)-1-ethyl-6-(pyridin-2-yl)-1H-imidazo[4,5-b]pyridin-2(3H)-one]	+	+	+
CCOc1nc([C@@H](CS(C)(=O)=O)n2c(=O)[nH]c3cc(-c4cc(F)ccc4OC)cnc32)ccc1OC [Ex. 117, (S)-6-(5-fluoro-2-methoxyphenyl)-3-(1-(6-ethoxy-5-methoxypyridin-2-yl)-2-(methylsulfonyl)ethyl)-1H-imidazo[4,5-b]pyridin-2(3H)-one]	+	+	+
CCOc1nc([C@@H](CS(C)(=O)=O)n2c(=O)[nH]c3cc(-c4cc(F)ccc4C)cnc32)ccc1OC [Ex. 109, (S)-6-(5-fluoro-2-methylphenyl)-3-(1-(6-ethoxy-5-methoxypyridin-2-yl)-2-(methylsulfonyl)ethyl)-1H-imidazo[4,5-b]pyridin-2(3H)-one]	+	+	+
CCOc1nc([C@@H](CS(C)(=O)=O)n2c(=O)n(C)c3cc(-c4ccccc4C)ccc32)ccc1OC [Ex. 140, (S)-1-(1-(6-ethoxy-5-methoxypyridin-2-yl)-2-(methylsulfonyl)ethyl)-5-(o-methylphenyl)-3-methyl-1H-benzo[d]imidazol-2(3H)-one]	+	+	+
CCOc1nc([C@@H](CS(C)(=O)=O)n2c(=O)n(CC(F)F)c3c(C)c(-c4ccc(F)cc4)cnc32)ccc1OC(C)C [Ex. 71, (S)-1-(2,2-difluoroethyl)-3-(1-(6-ethoxy-5-isopropoxypyridin-2-yl)-2-(methylsulfonyl)ethyl)-6-(4-fluorophenyl)-7-methyl-1H-imidazo[4,5-b]pyridin-2(3H)-one]	+	+	+
